*1 amine or outer side, *2 acyl side, *3 side chain or, on linkers, in order; H or OH if unused. Where a SMILES comes first, the peptide text is derived from it. Side-chain parts run from the residue outwards. [ ]: non-standard residue; d: D form. The star is where a group is joined. γGlu = O=C(O)[C@H](CCC(=O)[*:2])N[*:1]; Stearoyl = CCCCCCCCCCCCCCCCCC(=O)*; Palmitoyl = CCCCCCCCCCCCCCCC(=O)*; Nle = CCCC[C@H](N)C(=O)O; AEEA = NCCOCCOCC(=O)O; Aib = CC(C)(N)C(=O)O
target: T1, RXFP1 (Homo sapiens, UniProt Q9HBX9); test: OVCAR5 cAMP assay (HTRF), RXFP1 agonist activity; assay type: cell-based; conditions: OVCAR-5; maximal cAMP relative to H2-relaxin maximum (100%); read-out: EMax, OVCAR 5 cells (cAMP)
T1 construct: OVCAR5 cells expressing endogenous RXFP1; endogenous in cells; host or cells: OVCAR5 cells
T1 sequence (Q9HBX9 1-757): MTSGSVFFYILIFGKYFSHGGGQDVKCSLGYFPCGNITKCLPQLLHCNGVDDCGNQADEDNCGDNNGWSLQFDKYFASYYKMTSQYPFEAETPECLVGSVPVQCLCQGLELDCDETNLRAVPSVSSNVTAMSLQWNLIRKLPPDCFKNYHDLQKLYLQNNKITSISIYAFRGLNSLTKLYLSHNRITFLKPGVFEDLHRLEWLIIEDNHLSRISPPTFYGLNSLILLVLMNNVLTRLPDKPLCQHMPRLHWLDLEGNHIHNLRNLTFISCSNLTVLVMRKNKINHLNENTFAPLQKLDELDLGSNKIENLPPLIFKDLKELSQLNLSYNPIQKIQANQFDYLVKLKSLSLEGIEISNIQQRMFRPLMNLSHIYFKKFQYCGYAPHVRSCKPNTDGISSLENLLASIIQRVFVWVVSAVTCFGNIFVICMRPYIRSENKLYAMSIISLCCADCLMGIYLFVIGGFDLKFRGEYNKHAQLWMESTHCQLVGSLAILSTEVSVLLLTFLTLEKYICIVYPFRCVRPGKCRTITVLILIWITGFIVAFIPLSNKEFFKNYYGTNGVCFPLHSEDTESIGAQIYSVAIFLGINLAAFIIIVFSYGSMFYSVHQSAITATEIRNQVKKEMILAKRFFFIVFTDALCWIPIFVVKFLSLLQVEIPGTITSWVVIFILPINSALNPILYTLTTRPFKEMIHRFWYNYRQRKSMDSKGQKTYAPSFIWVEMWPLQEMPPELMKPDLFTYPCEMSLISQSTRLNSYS
Summary of the method: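 cAMP accumulation readout: after 1 mM IBMX for 40 min, endogenous-RXFP1 OVCAR5 cells got rising peptide concentrations without FCS, 30 min, 37° C, then lysis with HTRF cAMP reagents. Nonlinear regression gave EC50; Emax expressed relative to H2-relaxin maximum, same occasion.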

| Emax [%] | Compound |
| --- | --- |
| 75 | CCCCCCCCCCCCCCCC(=O)N[C@@H](CCC(=O)N[C@@H](CCC(=O)N[C@@H](CCC(=O)NCCOCCOCC(=O)NCCOCCOCC(=O)NCCOCCOCC(=O)NCCCC[C@H](NC(=O)[C@H](CCCCNC(C)=O)NC(=O)[C@H](CCCCN)NC(=O)[C@H](CCCNC(=N)N)NC(=O)C(C)(C)NC(=O)[C@H](CO)NC(=O)[C@H](Cc1ccc(O)cc1)NC(=O)[C@@H](NC(=O)[C@H](CO)NC(=O)[C@H](CCC(N)=O)NC(=O)CNC(=O)[C@H](CCC(=O)O)NC(=O)C(C)(C)NC(=O)C(C)(C)NC(=O)[C@@H](NC(=O)[C@H](CCCCNC(C)=O)NC(=O)[C@H](C)NC(=O)[C@H](CCCNC(=N)N)NC(=O)[C@@H](NC(=O)[C@H](CCCCN)NC(=O)[C@H](CCC(=O)O)NC(=O)[C@H](CCCNC(=N)N)NC(=O)CNC(=O)[C@H](CCC(=O)O)NC(=O)[C@H](CC(C)C)NC(C)=O)C(C)C)[C@@H](C)CC)[C@@H](C)O)C(N)=O)C(=O)O)C(=O)O)C(=O)O [compound 44] (Ac-LEGREKVRAK(Ac)I[Aib][Aib]EGQSTYS[Aib]RKK(Ac)K([AEEA-AEEA-AEEA-γGlu-γGlu-γGlu-Palmitoyl])-NH2) |
| 91 | CCCCCCCCCCCCCCCC(=O)N[C@@H](CCC(=O)NCCCC[C@H](NC(=O)CC[C@H](NC(=O)CC[C@H](NC(=O)COCCOCCNC(=O)COCCOCCNC(=O)COCCOCCNC(=O)COCCOCCNC(=O)[C@H](CCCCNC(C)=O)NC(=O)[C@H](CCCCN)NC(=O)[C@H](CCCNC(=N)N)NC(=O)C(C)(C)NC(=O)[C@H](CO)NC(=O)[C@H](Cc1c[nH]c2ccccc12)NC(=O)[C@@H](NC(=O)[C@H](CO)NC(=O)[C@H](CCCC)NC(=O)CNC(=O)[C@H](CCC(=O)O)NC(=O)C(C)(C)NC(=O)C(C)(C)NC(=O)[C@@H](NC(=O)[C@H](CCC(N)=O)NC(=O)[C@H](C)NC(=O)[C@H](CCCNC(=N)N)NC(=O)[C@@H](NC(=O)[C@H](CCCCN)NC(=O)[C@H](CCC(=O)O)NC(=O)[C@H](CCCNC(=N)N)NC(=O)CNC(=O)[C@H](CCC(=O)O)NC(=O)[C@H](CC(C)C)NC(C)=O)C(C)C)[C@@H](C)CC)[C@@H](C)O)C(=O)O)C(=O)O)C(N)=O)C(=O)O [compound 121] (Ac-LEGREKVRAQI[Aib][Aib]EG[Nle]STWS[Aib]RKK(Ac)[AEEA][AEEA][AEEA][AEEA][γGlu][γGlu]K([γGlu-Palmitoyl])-NH2) |
| 89 | CCCCCCCCCCCCCCCCCC(=O)N[C@@H](CCC(=O)N[C@@H](CCC(=O)N[C@@H](CCC(=O)NCCOCCOCC(=O)NCCOCCOCC(=O)NCCOCCOCC(=O)NCCCC[C@H](NC(=O)[C@H](CCCCN)NC(=O)[C@H](CCCCN)NC(=O)[C@H](CCCNC(=N)N)NC(=O)C(C)(C)NC(=O)[C@@H](NC(=O)[C@H](Cc1c[nH]c2ccccc12)NC(=O)[C@@H](NC(=O)[C@H](CO)NC(=O)[C@H](CCCC)NC(=O)CNC(=O)[C@H](CCC(=O)O)NC(=O)C(C)(C)NC(=O)C(C)(C)NC(=O)[C@@H](NC(=O)[C@H](CCC(N)=O)NC(=O)[C@H](C)NC(=O)[C@H](CCCNC(=N)N)NC(=O)[C@@H](NC(=O)[C@H](CCCCN)NC(=O)[C@H](CCC(=O)O)NC(=O)[C@H](CCCNC(=N)N)NC(=O)CNC(=O)[C@H](CCC(=O)O)NC(=O)[C@H](CC(C)C)NC(C)=O)C(C)C)[C@@H](C)CC)[C@@H](C)O)[C@@H](C)O)C(N)=O)C(=O)O)C(=O)O)C(=O)O [compound 76] (Ac-LEGREKVRAQI[Aib][Aib]EG[Nle]STWT[Aib]RKKK([AEEA-AEEA-AEEA-γGlu-γGlu-γGlu-Stearoyl])-NH2) |

From patent US10988523B2, “Modified lipidated Relaxin B chain peptides and their therapeutic use” (Sanofi, priority 2018, dated 2021)
